Data taken from patent US7897614B2, “Preventive agent/remedial agent for constipation predominant IBS” (Mitsubishi Tanabe Pharma Corporation, priority 2001, dated 2011).
Entries after “also recorded” stand apart in the source; their conditions may differ.

Columns and labels:
[1] = test system: patients suffering from constipation predominant IBS; test: Double blind clinical test in patients with constipation predominant IBS (Rome II criteria); format: in vivo, human
Source text: Clinical effects of the medicament of the present invention on patients suffering from constipation predominant IBS were studied (in accordance with Rome II diagnosis criteria).
The test conducted here was a double blind test by two groups. […] Administration period consisted of 2-week screening and 4 week treatment. […] In addition, an ameliorating ratio of each symptom, that is, stool state, difficulty in defecation, feeling of residual stool after defecation, abdominal bloating, abdominal discomfort and abdominal pain is shown in FIG. 1

IBS patients = conditions: score 2 = marginal improvement, 3 = small improvement; Br J Pharm Pract 1987; cited from earlier work
[2] = 0.2 mg twice a day, 4 week treatment, 9 patients in the group

Compound | Ameliorating ratio of each symptom (stool state, difficulty in defecation, residual stool feeling, abdominal bloating, discomfort, pain), FIG. 1 ([1]; 0.2 mg group compared with placebo group) | Total impression of the patients: Aggravated (number of patients) [1, 2] | Total impression of the patients: Highly effective (number of patients) [1, 2] | Total impression of the patients: Moderately effective (number of patients) [1, 2] | Total impression of the patients: Not effective (number of patients) [1, 2] | Total impression of the patients: Slightly effective (number of patients) [1, 2] | Effectiveness relative to the placebo group ([1]; 0.2 mg twice a day, 4 weeks) | Ratio of effectiveness (total percentage of highly effective and moderately effective cases) ([1]; 0.2 mg twice a day, 4 weeks, placebo group 30%) | Mean subjective score (IBS patients)
O=C(N[C@H]1CN2CCC1CC2)c1cnc2ccsc2c1O [the medicament of the present invention, (R)-N-(1-azabicyclo[2.2.2]oct-3-yl)-7-hydroxythieno[3,2-b]-pyridine-6-carboxamide] | exhibited an ameliorating ratio exceeding the placebo group in any symptoms | 0 | 0 | 5 | 2 | 2 | about twice; also recorded: about two fold | 56% | 
sennoside |  |  |  |  |  |  |  |  | 2.7
